Common to all, as to type: functional, organism-based
Data set [1] concerns the target ATP-binding cassette sub-family C member 2 (Mus musculus, UniProt Q8VI47). The data set is described as follows: (§1) TP_TRANSPORTER: RT-PCR in vivo, liver of CD-1 mouse.
In data set [2] the target is ATP-binding cassette sub-family C member 3 (Mus musculus, UniProt B2RX12). Described as §1.
A further data set concerns the target T1, Bile salt export pump (Mus musculus, UniProt Q9QY30).
T1 sequence (Q9QY30 whole entry): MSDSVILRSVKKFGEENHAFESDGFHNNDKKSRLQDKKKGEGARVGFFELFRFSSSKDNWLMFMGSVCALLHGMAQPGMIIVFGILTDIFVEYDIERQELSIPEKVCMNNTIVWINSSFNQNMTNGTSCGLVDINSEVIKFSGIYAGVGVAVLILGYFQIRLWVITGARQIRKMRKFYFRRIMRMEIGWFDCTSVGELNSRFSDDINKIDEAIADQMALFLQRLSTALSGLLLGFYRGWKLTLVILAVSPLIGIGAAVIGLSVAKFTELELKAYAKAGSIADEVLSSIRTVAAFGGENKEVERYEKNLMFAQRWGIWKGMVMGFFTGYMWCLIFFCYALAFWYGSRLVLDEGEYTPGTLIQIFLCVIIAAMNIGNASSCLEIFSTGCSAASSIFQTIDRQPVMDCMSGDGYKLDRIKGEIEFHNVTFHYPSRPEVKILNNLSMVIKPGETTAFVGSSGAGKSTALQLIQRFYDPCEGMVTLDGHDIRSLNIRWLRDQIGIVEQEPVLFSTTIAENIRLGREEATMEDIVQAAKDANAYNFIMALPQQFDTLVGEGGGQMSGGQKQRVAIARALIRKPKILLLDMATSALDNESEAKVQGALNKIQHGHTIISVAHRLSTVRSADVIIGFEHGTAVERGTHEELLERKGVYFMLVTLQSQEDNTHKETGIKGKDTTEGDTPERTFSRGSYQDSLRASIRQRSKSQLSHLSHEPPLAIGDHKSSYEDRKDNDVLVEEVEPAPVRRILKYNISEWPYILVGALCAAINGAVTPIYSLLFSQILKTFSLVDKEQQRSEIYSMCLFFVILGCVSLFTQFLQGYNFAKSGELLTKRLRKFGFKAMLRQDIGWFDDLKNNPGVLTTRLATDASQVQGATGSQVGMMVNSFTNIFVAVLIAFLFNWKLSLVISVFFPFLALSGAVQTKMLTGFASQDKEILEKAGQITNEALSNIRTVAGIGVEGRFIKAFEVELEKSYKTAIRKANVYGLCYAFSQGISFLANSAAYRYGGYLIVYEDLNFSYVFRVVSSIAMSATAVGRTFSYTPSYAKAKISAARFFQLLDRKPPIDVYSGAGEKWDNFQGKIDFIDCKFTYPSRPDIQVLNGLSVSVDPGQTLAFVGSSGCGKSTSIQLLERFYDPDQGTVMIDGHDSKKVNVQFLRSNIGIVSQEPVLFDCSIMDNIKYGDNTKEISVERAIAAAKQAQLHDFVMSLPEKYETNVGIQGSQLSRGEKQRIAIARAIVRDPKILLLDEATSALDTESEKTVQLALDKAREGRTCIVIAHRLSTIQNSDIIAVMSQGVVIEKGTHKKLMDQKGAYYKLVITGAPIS
The description is as §1.

The target of data set [3] is Multidrug resistance-associated protein 1 (Mus musculus, UniProt O35379). The data set is described as §1.
Multidrug resistance-associated protein 1, sequence (O35379 whole entry): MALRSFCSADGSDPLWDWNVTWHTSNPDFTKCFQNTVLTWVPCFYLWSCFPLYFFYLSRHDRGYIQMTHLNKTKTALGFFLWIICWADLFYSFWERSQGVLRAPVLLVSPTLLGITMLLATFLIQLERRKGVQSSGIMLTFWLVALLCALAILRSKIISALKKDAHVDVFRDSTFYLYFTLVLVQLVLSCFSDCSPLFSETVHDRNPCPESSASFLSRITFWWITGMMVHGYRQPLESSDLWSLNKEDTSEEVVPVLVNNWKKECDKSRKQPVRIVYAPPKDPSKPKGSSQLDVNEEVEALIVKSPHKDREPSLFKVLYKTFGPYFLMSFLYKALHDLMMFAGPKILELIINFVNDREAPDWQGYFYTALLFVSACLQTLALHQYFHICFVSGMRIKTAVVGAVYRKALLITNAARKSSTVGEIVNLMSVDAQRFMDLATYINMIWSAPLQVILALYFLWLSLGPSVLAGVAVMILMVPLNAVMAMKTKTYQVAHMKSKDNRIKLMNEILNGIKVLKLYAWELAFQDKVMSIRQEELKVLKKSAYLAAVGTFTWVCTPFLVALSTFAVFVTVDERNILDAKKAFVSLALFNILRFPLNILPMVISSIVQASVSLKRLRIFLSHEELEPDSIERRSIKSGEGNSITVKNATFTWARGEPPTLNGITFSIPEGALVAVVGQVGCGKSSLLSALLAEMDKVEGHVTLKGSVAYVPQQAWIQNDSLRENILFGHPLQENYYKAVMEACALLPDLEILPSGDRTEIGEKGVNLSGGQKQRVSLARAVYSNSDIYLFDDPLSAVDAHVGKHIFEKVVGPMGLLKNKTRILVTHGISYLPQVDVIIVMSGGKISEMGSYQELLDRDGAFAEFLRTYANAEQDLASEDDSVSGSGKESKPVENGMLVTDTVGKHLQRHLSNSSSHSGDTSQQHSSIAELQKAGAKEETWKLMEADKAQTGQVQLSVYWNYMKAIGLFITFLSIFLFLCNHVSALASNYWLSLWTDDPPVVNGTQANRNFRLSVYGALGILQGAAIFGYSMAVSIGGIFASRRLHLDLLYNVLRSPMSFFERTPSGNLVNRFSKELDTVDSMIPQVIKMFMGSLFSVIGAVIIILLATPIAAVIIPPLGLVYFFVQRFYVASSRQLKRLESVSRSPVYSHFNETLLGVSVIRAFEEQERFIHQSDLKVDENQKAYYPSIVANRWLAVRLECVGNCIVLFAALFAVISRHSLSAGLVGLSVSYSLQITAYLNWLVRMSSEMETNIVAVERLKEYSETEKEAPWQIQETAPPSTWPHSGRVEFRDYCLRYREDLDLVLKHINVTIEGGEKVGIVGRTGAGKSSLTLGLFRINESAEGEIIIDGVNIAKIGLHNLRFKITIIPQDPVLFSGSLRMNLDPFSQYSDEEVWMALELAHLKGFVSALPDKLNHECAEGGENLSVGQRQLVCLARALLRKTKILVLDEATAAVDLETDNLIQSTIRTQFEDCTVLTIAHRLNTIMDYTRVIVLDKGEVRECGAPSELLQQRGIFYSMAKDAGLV
Data set [4] has as its target T2, Solute carrier organic anion transporter family member 1A1 (Mus musculus, UniProt Q9QXZ6).
T2 sequence (Q9QXZ6 whole entry): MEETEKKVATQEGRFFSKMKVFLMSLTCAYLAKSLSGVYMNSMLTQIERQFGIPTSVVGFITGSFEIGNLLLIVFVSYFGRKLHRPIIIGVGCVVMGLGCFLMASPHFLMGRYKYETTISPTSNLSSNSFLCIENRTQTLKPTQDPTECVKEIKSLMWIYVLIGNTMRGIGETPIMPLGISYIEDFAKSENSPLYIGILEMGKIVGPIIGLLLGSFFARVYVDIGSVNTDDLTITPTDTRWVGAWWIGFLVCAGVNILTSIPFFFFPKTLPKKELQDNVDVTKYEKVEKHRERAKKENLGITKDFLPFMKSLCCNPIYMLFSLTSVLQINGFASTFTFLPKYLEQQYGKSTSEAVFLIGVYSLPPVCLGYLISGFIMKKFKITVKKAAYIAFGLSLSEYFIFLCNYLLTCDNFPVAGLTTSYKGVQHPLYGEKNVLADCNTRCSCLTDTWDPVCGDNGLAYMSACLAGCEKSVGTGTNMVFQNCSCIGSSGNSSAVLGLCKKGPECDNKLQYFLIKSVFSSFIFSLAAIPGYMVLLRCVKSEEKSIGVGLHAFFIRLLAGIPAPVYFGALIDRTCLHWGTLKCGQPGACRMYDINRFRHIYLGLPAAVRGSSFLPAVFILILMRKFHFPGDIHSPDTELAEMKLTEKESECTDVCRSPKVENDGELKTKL
The data set is described as §1.

Data set [5] deals with T3, Solute carrier organic anion transporter family member 1A4 (Mus musculus, UniProt Q9EP96).
T3 sequence (Q9EP96 whole entry): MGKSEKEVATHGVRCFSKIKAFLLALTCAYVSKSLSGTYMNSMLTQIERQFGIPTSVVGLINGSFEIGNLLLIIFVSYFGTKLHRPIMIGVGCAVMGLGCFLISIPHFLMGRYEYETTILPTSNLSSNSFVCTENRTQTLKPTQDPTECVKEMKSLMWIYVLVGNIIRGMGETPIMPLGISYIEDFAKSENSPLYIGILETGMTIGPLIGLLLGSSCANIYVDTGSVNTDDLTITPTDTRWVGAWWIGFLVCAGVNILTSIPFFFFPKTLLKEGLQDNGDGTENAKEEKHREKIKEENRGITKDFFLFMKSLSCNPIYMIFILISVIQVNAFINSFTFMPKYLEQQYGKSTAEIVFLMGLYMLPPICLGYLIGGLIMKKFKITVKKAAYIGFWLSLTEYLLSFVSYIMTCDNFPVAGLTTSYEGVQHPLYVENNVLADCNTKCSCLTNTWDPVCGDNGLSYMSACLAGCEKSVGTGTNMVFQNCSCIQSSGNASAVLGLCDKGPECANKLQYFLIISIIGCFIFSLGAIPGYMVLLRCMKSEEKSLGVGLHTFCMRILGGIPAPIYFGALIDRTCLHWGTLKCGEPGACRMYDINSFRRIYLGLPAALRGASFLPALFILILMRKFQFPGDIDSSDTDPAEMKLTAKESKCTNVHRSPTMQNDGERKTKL
The description is as §1.

Consider five compounds from ChEMBL document CHEMBL2073975, “Inflammatory cytokines, but not bile acids, regulate expression of murine hepatic anion transporters in endotoxemia” (J Pharmacol Exp Ther, 2002).

ATP-binding cassette sub-family C member 2, sequence (Q8VI47 whole entry): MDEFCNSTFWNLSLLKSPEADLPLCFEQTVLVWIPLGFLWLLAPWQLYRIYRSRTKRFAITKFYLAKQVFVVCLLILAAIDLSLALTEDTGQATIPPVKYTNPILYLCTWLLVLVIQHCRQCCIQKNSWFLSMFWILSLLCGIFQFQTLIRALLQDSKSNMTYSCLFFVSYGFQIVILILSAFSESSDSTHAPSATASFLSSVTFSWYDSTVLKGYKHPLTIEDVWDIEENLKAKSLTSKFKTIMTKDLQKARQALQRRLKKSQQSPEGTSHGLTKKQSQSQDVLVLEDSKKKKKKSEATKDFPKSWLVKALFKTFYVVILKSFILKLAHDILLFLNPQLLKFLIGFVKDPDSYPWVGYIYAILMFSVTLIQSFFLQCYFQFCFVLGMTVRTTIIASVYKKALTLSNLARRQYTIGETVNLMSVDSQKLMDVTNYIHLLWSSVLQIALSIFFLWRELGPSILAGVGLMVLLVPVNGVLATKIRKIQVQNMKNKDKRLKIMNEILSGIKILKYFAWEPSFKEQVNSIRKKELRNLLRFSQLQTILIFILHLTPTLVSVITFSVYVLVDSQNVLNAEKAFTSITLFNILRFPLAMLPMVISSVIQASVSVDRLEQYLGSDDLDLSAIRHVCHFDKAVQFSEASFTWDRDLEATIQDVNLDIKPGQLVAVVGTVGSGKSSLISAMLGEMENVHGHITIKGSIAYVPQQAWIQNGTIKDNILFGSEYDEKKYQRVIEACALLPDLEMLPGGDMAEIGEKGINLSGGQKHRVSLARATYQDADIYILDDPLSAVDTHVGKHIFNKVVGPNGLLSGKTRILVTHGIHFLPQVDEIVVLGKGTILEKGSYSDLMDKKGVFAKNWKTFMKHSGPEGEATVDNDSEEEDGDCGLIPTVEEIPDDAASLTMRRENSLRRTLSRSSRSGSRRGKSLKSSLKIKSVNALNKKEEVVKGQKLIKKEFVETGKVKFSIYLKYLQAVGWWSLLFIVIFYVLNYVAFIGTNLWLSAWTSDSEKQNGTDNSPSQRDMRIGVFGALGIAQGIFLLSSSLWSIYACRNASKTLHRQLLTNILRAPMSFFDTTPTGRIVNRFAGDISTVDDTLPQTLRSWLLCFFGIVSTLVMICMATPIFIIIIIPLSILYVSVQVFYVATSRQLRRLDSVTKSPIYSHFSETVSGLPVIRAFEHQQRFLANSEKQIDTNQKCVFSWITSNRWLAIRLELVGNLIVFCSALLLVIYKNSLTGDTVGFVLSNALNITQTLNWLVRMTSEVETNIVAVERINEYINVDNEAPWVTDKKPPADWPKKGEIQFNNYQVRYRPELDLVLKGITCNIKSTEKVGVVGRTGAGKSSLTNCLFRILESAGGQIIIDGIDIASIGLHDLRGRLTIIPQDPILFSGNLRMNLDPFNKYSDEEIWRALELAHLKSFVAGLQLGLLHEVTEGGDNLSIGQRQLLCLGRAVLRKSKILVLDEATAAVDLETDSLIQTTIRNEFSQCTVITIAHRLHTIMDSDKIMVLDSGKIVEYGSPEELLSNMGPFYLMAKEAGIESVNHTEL
ATP-binding cassette sub-family C member 3, sequence (B2RX12 whole entry): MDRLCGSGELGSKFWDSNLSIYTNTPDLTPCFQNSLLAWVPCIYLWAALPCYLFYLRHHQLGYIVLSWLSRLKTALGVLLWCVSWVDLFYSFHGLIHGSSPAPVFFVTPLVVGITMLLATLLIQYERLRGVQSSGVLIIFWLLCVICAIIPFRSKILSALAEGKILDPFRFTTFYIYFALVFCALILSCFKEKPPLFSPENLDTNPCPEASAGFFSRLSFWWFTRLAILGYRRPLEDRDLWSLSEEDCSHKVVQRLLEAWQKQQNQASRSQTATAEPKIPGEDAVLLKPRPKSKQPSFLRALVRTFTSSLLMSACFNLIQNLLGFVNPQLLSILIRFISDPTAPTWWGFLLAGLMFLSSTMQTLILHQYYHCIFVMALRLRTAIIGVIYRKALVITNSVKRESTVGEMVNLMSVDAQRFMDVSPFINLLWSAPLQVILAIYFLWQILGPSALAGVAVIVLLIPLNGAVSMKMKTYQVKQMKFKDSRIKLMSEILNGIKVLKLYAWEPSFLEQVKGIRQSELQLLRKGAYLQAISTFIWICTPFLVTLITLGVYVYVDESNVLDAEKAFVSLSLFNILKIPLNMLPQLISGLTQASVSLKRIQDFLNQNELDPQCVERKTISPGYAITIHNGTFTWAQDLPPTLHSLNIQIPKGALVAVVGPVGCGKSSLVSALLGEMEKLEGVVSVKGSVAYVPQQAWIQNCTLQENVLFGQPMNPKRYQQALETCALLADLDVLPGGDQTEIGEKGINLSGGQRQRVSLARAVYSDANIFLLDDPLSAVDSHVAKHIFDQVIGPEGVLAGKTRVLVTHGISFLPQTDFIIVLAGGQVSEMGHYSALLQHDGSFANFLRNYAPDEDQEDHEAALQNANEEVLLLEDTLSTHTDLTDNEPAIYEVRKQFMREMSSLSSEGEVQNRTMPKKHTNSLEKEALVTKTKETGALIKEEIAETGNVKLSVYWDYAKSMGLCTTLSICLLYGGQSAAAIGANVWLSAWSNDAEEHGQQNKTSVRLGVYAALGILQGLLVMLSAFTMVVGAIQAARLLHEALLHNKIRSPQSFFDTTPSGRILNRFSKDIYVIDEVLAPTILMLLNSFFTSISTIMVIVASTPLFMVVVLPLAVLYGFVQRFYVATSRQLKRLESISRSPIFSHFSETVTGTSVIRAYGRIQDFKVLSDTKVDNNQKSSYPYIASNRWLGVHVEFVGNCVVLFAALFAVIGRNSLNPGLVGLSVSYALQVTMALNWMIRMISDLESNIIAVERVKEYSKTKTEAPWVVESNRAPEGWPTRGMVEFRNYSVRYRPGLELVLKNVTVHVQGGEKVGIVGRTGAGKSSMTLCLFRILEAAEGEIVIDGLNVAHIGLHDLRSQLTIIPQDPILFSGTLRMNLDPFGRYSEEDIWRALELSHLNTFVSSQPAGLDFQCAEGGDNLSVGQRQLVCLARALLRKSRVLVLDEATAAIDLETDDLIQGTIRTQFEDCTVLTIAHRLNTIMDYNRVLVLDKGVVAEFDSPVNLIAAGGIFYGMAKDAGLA

In the case of `CCCCCCCCCCCCCC(=O)OC(CCCCCCCCCCC)CC(=O)OC1C(NC(=O)CC(CCCCCCCCCCC)OC(=O)CCCCCCCCCCC)C(OC2CC(OC(=O)CC(O)CCCCCCCCCCC)C(NC(=O)CC(O)CCCCCCCCCCC)C(O)O2)OC(CO)C1OP(=O)(O)O` (stereo not given), the Activity result is “inducer [Decrease]” in data set [1]; “inducer [Decrease]” in data set [2]; “inducer [Decrease]” on Bile salt export pump; “is not an inducer [-]” in data set [3]; “inducer [Decrease]” in data set [4]; “inducer [Decrease]” in data set [5].

Regarding `C[C@H](CCC(=O)NCCS(=O)(=O)O)[C@H]1CC[C@H]2[C@@H]3CC[C@@H]4C[C@H](O)CC[C@]4(C)[C@H]3C[C@H](O)[C@]12C` [TAURODEOXYCHOLIC ACID], the Activity result in data set [1] was “is not an inducer [-]”; on Bile salt export pump, “inducer [+]”; in data set [3] it was “is not an inducer [-]”; in data set [4], “is not an inducer [-]”; in data set [5], “is not an inducer [-]”.

As for INTERLEUKIN 1BETA, the Activity entry is “inducer [Decrease]” in data set [1]; “is not an inducer [-]” in data set [2]; “inducer [Decrease]” at Bile salt export pump; “inducer [Decrease]” in data set [4]; “inducer [Decrease]” in data set [5].

Take TURPENTINE: the Activity entry in data set [1] was “inducer [Decrease]”; in data set [2], “is not an inducer [-]”; at Bile salt export pump, “inducer [Decrease]”; in data set [4] it was “inducer [Decrease]”; in data set [5] it was “inducer [Decrease]”.

Take INTERLEUKIN 6: the Activity result (in data set [1]; on Bile salt export pump; in data set [4]; in data set [5]) was “inducer [Decrease]” in each case.
